Square brackets hold non-standard residues; d marks the D form. Peptide text beside a SMILES is read from it. Trp(5-OH) = N[C@@H](Cc1c[nH]c2ccc(O)cc12)C(=O)O; NMeW = CN[C@@H](Cc1c[nH]c2ccccc12)C(=O)O; Orn = NCCC[C@H](N)C(=O)O
Target: Angiotensin-converting enzyme (Bos taurus)
Test: Inhibition of ACE in bovine kidney

Structure (SMILES)	IC50 [µM]
CN[C@@H](Cc1c[nH]c2ccccc12)C(=O)N[C@@H](CCCN)C(=O)N1CCC[C@H]1C(=O)O [MTP-Orn-Pro] (H-[NMeW]-[Orn]-Pro-OH)	10
NCCC[C@H](NC(=O)[C@@H](N)Cc1c[nH]c2ccc(O)cc12)C(=O)N1CCC[C@H]1C(=O)O [HTP-Orn-Pro] (H-[Trp(5-OH)]-[Orn]-Pro-OH)	4
NCCC[C@H](NC(=O)CCc1nc2ccccc2[nH]1)C(=O)N1CCC[C@H]1C(=O)O [BPA-Lys-Pro]	10

Reference: BindingDB's records for doi:10.1016/j.bmcl.2006.01.061 (Institute of Genomics and Integrative Biology, 2006)
